Source: patent US8772480B2, “Inhibitors of PI3 kinase and/or mTOR” (priority 2009, dated 2014)

Columns and labels:
[1] = target: human mutant B-raf (HuBraf V600E) (Homo sapiens (Human), UniProt P15056, V600E); settings: at 10 μM compound concentration; POC = 100 − percent inhibition
[2] = target: ProfilerPro Kinase Selectivity Assay Kit kinases (Homo sapiens, UniProt P31749); type: biochemical; settings: AKT1; 1 μM compound concentration
Description: (§1) Compounds were profiled using a LabChip® EZ Reader II platform and a ProfilerPro Kinase Selectivity Assay Kit (Caliper Lifesciences Inc., Hopkinton, Mass.). Compounds were tested at a concentration of 1 M in duplicate, with mean data reported as percent of control (POC).

[3] = target: ProfilerPro Kinase Selectivity Assay Kit kinases (Homo sapiens, UniProt O96017); type: biochemical; settings: CHK2; 1 μM compound concentration
Description: as §1

[4] = target: ProfilerPro Kinase Selectivity Assay Kit kinases (Homo sapiens, UniProt P24941); type: biochemical; settings: CDK2; 1 μM compound concentration
Description: as §1

[5] = target: ProfilerPro Kinase Selectivity Assay Kit kinases (Homo sapiens, UniProt P11362); type: biochemical; settings: FGFR1; 1 μM compound concentration
ProfilerPro Kinase Selectivity Assay Kit kinases (Homo sapiens, UniProt P11362), sequence (P11362 22-822 limits assumed): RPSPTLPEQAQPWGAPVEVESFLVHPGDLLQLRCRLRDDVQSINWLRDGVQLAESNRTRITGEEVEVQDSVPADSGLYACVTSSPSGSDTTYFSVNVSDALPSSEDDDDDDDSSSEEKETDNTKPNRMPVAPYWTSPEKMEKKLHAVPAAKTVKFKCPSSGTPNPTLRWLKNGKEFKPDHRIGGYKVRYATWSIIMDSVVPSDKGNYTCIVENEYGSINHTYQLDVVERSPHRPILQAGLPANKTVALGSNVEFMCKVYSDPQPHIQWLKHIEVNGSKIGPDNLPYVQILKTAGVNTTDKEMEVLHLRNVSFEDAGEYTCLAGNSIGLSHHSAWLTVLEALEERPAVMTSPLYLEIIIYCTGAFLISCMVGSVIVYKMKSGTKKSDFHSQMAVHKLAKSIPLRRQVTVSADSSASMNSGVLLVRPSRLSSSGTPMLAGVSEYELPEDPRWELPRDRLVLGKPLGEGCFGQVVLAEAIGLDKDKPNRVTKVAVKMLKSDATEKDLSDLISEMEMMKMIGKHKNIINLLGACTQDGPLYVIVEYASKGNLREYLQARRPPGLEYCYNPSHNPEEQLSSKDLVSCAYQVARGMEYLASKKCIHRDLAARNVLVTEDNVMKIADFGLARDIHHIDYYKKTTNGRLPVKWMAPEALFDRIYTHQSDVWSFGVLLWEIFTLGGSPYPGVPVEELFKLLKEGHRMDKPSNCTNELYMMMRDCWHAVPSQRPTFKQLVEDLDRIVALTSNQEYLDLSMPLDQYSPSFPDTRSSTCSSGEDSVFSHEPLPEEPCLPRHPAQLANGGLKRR
Description: as §1

[6] = target: ProfilerPro Kinase Selectivity Assay Kit kinases (Homo sapiens, UniProt P17612); type: biochemical; settings: PKA alpha; 1 μM compound concentration
Description: as §1

[7] = target: ProfilerPro Kinase Selectivity Assay Kit kinases (Homo sapiens, UniProt P08069); type: biochemical; settings: IGF1R; 1 μM compound concentration
Description: as §1

[8] = target: ProfilerPro Kinase Selectivity Assay Kit kinases (Homo sapiens, UniProt P06241); type: biochemical; settings: FYN; 1 μM compound concentration
ProfilerPro Kinase Selectivity Assay Kit kinases (Homo sapiens, UniProt P06241), sequence (P06241 2-537 limits assumed): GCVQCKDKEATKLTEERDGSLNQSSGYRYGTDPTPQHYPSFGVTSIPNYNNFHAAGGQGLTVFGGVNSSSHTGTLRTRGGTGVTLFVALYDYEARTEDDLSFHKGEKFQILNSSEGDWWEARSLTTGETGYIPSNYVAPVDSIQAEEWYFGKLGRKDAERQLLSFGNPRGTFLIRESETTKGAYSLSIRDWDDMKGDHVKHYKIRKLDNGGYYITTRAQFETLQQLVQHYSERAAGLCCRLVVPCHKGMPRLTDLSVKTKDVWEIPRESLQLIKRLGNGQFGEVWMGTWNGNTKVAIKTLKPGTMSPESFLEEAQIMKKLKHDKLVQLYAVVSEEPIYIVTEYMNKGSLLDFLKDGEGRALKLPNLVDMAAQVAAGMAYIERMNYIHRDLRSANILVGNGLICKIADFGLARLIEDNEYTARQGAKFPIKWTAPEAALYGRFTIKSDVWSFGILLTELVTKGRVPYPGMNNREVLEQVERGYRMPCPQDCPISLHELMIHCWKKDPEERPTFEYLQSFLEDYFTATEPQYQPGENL
Description: as §1

[9] = target: ProfilerPro Kinase Selectivity Assay Kit kinases (Homo sapiens, UniProt Q9BZL6); type: biochemical; settings: PKD2; 1 μM compound concentration
Description: as §1

[10] = target: ProfilerPro Kinase Selectivity Assay Kit kinases (Homo sapiens, UniProt P00519); type: biochemical; settings: ABL; 1 μM compound concentration
Description: as §1

[11] = target: ProfilerPro Kinase Selectivity Assay Kit kinases (Homo sapiens, UniProt P36888); type: biochemical; settings: FLT3; 1 μM compound concentration
ProfilerPro Kinase Selectivity Assay Kit kinases (Homo sapiens, UniProt P36888), sequence (P36888 27-993 limits assumed): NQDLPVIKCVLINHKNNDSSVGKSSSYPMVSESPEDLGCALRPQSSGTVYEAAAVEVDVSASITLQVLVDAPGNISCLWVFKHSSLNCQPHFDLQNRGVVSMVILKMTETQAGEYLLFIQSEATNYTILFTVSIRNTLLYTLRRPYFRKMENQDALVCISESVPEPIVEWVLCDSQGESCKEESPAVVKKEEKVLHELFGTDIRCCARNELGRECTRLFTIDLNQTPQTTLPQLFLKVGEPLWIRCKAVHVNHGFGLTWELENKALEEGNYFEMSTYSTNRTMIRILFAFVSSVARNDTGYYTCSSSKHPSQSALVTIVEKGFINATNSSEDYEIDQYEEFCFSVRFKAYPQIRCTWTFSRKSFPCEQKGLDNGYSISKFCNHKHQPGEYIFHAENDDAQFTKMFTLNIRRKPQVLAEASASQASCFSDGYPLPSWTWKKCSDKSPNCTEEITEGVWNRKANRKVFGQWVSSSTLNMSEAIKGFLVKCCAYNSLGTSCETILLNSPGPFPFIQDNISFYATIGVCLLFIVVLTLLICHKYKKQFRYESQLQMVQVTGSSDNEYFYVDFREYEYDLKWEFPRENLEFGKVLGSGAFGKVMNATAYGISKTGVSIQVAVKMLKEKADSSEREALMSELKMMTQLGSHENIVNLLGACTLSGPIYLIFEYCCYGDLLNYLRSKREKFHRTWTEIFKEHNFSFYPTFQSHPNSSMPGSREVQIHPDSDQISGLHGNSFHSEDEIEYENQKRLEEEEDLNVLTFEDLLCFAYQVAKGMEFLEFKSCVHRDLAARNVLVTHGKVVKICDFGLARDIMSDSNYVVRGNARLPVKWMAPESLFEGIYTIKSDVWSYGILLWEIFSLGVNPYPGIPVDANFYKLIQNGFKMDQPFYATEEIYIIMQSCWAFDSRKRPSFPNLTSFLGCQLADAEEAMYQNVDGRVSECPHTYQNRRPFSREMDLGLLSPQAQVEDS
Description: as §1

[12] = target: ProfilerPro Kinase Selectivity Assay Kit kinases (Homo sapiens, UniProt P06239); type: biochemical; settings: LCK; 1 μM compound concentration
ProfilerPro Kinase Selectivity Assay Kit kinases (Homo sapiens, UniProt P06239), sequence (P06239 2-509 limits assumed): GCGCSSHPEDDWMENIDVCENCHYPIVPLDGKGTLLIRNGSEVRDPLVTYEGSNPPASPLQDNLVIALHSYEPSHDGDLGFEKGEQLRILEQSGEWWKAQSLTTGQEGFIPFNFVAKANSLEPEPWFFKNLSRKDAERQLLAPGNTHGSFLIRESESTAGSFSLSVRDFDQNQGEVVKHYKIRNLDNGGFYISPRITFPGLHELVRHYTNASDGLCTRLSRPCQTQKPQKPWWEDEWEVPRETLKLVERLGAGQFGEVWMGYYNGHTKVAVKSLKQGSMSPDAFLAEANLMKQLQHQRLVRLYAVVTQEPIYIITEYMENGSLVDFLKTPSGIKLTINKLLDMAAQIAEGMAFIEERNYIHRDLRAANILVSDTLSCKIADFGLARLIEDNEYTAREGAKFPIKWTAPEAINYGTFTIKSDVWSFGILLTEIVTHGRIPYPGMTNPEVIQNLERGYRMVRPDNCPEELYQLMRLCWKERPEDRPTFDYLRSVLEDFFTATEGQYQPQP
Description: as §1

[13] = target: ProfilerPro Kinase Selectivity Assay Kit kinases (Homo sapiens, UniProt P07948); type: biochemical; settings: LYN; 1 μM compound concentration
ProfilerPro Kinase Selectivity Assay Kit kinases (Homo sapiens, UniProt P07948), sequence (P07948 2-512 limits assumed): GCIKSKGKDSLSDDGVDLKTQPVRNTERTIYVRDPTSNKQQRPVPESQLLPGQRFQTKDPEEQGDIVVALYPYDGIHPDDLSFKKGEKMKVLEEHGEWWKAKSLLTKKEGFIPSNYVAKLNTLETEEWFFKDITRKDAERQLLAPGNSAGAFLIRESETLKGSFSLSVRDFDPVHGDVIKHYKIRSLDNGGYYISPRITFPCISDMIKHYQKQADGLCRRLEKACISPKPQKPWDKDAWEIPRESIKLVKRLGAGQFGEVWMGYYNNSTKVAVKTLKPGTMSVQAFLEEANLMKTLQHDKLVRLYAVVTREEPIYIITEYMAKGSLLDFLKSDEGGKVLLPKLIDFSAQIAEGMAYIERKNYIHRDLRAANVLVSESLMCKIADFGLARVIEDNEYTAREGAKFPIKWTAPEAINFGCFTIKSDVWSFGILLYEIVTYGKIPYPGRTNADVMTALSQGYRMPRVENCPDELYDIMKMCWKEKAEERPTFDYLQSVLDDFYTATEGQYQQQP
Description: as §1

[14] = target: ProfilerPro Kinase Selectivity Assay Kit kinases (Homo sapiens, UniProt Q13177); type: biochemical; settings: PAK2; 1 μM compound concentration
ProfilerPro Kinase Selectivity Assay Kit kinases (Homo sapiens, UniProt Q13177), sequence (Q13177 2-524 limits assumed): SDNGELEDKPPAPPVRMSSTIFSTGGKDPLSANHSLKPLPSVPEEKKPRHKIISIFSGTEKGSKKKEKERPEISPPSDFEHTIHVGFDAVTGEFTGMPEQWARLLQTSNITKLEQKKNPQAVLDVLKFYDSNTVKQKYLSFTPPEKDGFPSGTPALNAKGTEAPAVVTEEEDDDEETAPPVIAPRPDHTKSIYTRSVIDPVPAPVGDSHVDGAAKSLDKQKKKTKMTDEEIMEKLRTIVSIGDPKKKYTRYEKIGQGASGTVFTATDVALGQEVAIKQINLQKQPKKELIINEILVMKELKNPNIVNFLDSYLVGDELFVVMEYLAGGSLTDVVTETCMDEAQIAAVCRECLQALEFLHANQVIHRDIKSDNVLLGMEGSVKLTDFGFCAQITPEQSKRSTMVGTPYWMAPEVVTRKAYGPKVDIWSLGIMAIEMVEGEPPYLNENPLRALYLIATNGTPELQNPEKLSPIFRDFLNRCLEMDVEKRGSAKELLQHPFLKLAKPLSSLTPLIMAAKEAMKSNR
Description: as §1

[15] = target: ProfilerPro Kinase Selectivity Assay Kit kinases (Homo sapiens, UniProt Q9P1W9); type: biochemical; settings: PIM2; 1 μM compound concentration
Description: as §1

[16] = target: ProfilerPro Kinase Selectivity Assay Kit kinases (Homo sapiens, UniProt P04049); type: biochemical; settings: cRAF; 1 μM compound concentration
Description: as §1

[17] = target: ProfilerPro Kinase Selectivity Assay Kit kinases (Homo sapiens, UniProt O14757); type: biochemical; settings: CHK1; 1 μM compound concentration
Description: as §1

[18] = target: ProfilerPro Kinase Selectivity Assay Kit kinases (Homo sapiens, UniProt Q13976); type: biochemical; settings: PKGa2; 1 μM compound concentration
Description: as §1

[19] = target: ProfilerPro Kinase Selectivity Assay Kit kinases (Homo sapiens, UniProt Q05513); type: biochemical; settings: PKC zeta; 1 μM compound concentration
Description: as §1

[20] = target: ProfilerPro Kinase Selectivity Assay Kit kinases (Homo sapiens, UniProt P27361); type: biochemical; settings: ERK1; 1 μM compound concentration
Description: as §1

[21] = target: ProfilerPro Kinase Selectivity Assay Kit kinases (Homo sapiens, UniProt P23443); type: biochemical; settings: p70S6K; 1 μM compound concentration
Description: as §1

[22] = target: ProfilerPro Kinase Selectivity Assay Kit kinases (Homo sapiens, UniProt P43405); type: biochemical; settings: SYK; 1 μM compound concentration
Description: as §1

[23] = target: ProfilerPro Kinase Selectivity Assay Kit kinases (Homo sapiens, UniProt P28482); type: biochemical; settings: ERK2; 1 μM compound concentration
ProfilerPro Kinase Selectivity Assay Kit kinases (Homo sapiens, UniProt P28482), sequence (P28482 2-360 limits assumed): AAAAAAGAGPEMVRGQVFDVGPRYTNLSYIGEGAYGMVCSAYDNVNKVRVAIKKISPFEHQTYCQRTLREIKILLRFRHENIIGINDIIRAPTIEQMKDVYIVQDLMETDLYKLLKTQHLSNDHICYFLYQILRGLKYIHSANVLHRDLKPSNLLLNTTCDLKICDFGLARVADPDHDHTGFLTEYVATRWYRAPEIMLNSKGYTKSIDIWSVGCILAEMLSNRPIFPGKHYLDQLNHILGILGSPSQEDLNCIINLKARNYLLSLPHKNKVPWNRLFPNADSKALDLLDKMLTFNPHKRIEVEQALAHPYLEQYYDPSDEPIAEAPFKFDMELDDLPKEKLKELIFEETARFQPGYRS
Description: as §1

[24] = target: ProfilerPro Kinase Selectivity Assay Kit kinases (Homo sapiens, UniProt P35968); type: biochemical; settings: KDR; 1 μM compound concentration
Description: as §1

[25] = target: ProfilerPro Kinase Selectivity Assay Kit kinases (Homo sapiens, UniProt Q06187); type: biochemical; settings: BTK; 1 μM compound concentration
Description: as §1

[26] = target: ProfilerPro Kinase Selectivity Assay Kit kinases (Homo sapiens, UniProt Q9P0L2); type: biochemical; settings: MARK1; 1 μM compound concentration
Description: as §1

[27] = target: ProfilerPro Kinase Selectivity Assay Kit kinases (Homo sapiens, UniProt P12931); type: biochemical; settings: SRC; 1 μM compound concentration
ProfilerPro Kinase Selectivity Assay Kit kinases (Homo sapiens, UniProt P12931), sequence (P12931 2-536 limits assumed): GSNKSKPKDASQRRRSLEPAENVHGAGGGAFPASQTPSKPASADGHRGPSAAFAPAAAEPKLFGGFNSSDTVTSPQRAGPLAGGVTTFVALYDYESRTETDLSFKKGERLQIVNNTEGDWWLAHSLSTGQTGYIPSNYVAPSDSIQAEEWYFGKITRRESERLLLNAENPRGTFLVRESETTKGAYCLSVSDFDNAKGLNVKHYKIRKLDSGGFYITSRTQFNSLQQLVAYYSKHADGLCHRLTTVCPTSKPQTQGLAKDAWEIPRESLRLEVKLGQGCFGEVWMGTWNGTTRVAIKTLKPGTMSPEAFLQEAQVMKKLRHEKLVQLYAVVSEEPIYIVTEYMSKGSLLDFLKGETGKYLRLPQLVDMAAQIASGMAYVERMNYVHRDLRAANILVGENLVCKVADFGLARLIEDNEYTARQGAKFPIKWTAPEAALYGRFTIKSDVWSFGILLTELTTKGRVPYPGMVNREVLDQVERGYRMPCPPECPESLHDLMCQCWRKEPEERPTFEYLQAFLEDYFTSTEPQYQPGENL
Description: as §1

[28] = target: ProfilerPro Kinase Selectivity Assay Kit kinases (Homo sapiens, UniProt O95819); type: biochemical; settings: HGK; 1 μM compound concentration
Description: as §1

[29] = target: ProfilerPro Kinase Selectivity Assay Kit kinases (Homo sapiens, UniProt O75582); type: biochemical; settings: MSK1; 1 μM compound concentration
Description: as §1

[30] = target: ProfilerPro Kinase Selectivity Assay Kit kinases (Homo sapiens, UniProt O14965); type: biochemical; settings: AURORA A; 1 μM compound concentration
Description: as §1

[31] = target: ProfilerPro Kinase Selectivity Assay Kit kinases (Homo sapiens, UniProt O00141); type: biochemical; settings: SGK1; 1 μM compound concentration
Description: as §1

Structure (SMILES) | POC (Percent of control) AKT1 [2] | POC (Percent of control) CHK2 [3] | POC (Percent of control) CDK2 [4] | POC (Percent of control) FGFR1 [5] | POC (Percent of control) PKA alpha [6] | POC (Percent of control) IGF1R [7] | POC (Percent of control) FYN [8] | POC (Percent of control) PKD2 [9] | POC (Percent of control) ABL [10] | POC (Percent of control) FLT3 [11] | POC (Percent of control) LCK [12] | POC (Percent of control) LYN [13] | POC (Percent of control) PAK2 [14] | POC (Percent of control) PIM2 [15] | POC (Percent of control) cRAF [16] | POC (Percent of control) CHK1 [17] | POC (Percent of control) PKGa2 [18] | POC (Percent of control) PKC zeta [19] | POC (Percent of control) ERK1 [20] | POC (Percent of control) p70S6K [21] | also measured
Cc1cnc(Nc2cccc3[nH]ncc23)c(-c2nc(C)nc(N)n2)c1 [Example 47, N-(3-(4-Amino-6-Methyl-1,3,5-Triazin-2-yl)-5-Methylpyridine-2-yl)-1H-Indazol-4-Amine] | 50 POC | 99 POC | 93 POC | 94 POC | 16 POC | 82 POC | 87 POC | 113 POC | 81 POC | 89 POC | 61 POC | 55 POC | 99 POC | 104 POC | 56 POC | 92 POC | 80 POC | 102 POC | 103 POC | 60 POC | Mutant B-raf HTRF Assay POC Mean n = 2 [1]: 91% of Control (POC); POC (Percent of control) SYK [22]: 95 POC; POC (Percent of control) ERK2 [23]: 104 POC; POC (Percent of control) KDR [24]: 86 POC; POC (Percent of control) BTK [25]: 93 POC; POC (Percent of control) MARK1 [26]: 107 POC; POC (Percent of control) SRC [27]: 79 POC; POC (Percent of control) HGK [28]: 91 POC; POC (Percent of control) MSK1 [29]: 76 POC; POC (Percent of control) AURORA A [30]: 85 POC; POC (Percent of control) SGK1 [31]: 89 POC
c1cnc(Nc2cccc3[nH]ncc23)c(-c2ncnc3[nH]cnc23)c1 [Example 18, N-(3-(9H-Purin-6-yl)Pyridin-2-yl)-1H-Indazol-4-Amine] | 103 POC | 94 POC | 91 POC | 62 POC | 97 POC | 64 POC | 86 POC | 97 POC | 77 POC | 106 POC | 72 POC | 81 POC | 96 POC | 101 POC | 1 POC | 97 POC | 90 POC | 102 POC | 104 POC | 98 POC | Mutant B-raf HTRF Assay POC Mean n = 2 [1]: 3% of Control (POC); POC (Percent of control) SYK [22]: 63 POC; POC (Percent of control) ERK2 [23]: 96 POC; POC (Percent of control) KDR [24]: 89 POC; POC (Percent of control) BTK [25]: 99 POC; POC (Percent of control) MARK1 [26]: 112 POC; POC (Percent of control) SRC [27]: 93 POC; POC (Percent of control) HGK [28]: 92 POC; POC (Percent of control) MSK1 [29]: 97 POC; POC (Percent of control) AURORA A [30]: 84 POC; POC (Percent of control) SGK1 [31]: 97 POC
COc1ccc(Nc2ncc(Cc3ccc(S(C)(=O)=O)cc3)cc2-c2nc(C)nc3[nH]cnc23)cn1 [Example 103, N-(6-methoxypyridin-3-yl)-3-(2-methyl-9H-purin-6-yl)-5-(4-(methylsulfonyl)benzyl)pyridin-2-amine] | 94 POC | 94 POC | 100 POC | 100 POC | 99 POC | 91 POC | 97 POC | 87 POC | 95 POC | 85 POC | 92 POC | 97 POC | 98 POC | 96 POC | 100 POC | 107 POC | 98 POC | 98 POC | 101 POC | 109 POC | POC (Percent of control) SYK [22]: 99 POC; POC (Percent of control) ERK2 [23]: 94 POC; POC (Percent of control) KDR [24]: 91 POC; POC (Percent of control) BTK [25]: 97 POC; POC (Percent of control) MARK1 [26]: 131 POC; POC (Percent of control) SRC [27]: 89 POC; POC (Percent of control) HGK [28]: 85 POC; POC (Percent of control) MSK1 [29]: 101 POC; POC (Percent of control) AURORA A [30]: 100 POC; POC (Percent of control) SGK1 [31]: 96 POC
